Assay results from BindingDB's records for doi:10.1074/jbc.M113.503474 (The Ohio State University, 2013).
“And” between values parts separate entries of the source, which are not always exact repeats. Identical values can stand only once.

Molecular target: Isoform Tau-F of Microtubule-associated protein tau (Human, UniProt P10636)
Test: Tau Protein Assay
Settings: pH 7.4
Protocol: The Tau content of fractions was determined by dot blot analysis using nitrocellulose membranes (0.2 μm porosity) as described previously [Cisek et al., Biophys. Chem., 170:25-33]. The membranes were blocked in 5% nonfat dry milk dissolved in blocking buffer (100 mM Tris-HCl, pH 7.4, and 150 mM NaCl) for 1 h and then incubated with primary antibody Tau5 at 1:5000 dilution for 2 h. Membranes were then washed three times with blocking buffer and incubated with horseradish peroxidase-linked secondary antibody for 2 h. After washing another three times with blocking buffer, membranes were imaged using the Enhanced Chemiluminescence Western blotting Analysis System (GE Healthcare, Buckinghamshire, UK) recorded on an Omega 12iC Molecular Imaging System and quantified using Ultra-Quant software (UltraLum, Claremont, CA, USA).

Sequence of Isoform Tau-F of Microtubule-associated protein tau (P10636 as listed by the source): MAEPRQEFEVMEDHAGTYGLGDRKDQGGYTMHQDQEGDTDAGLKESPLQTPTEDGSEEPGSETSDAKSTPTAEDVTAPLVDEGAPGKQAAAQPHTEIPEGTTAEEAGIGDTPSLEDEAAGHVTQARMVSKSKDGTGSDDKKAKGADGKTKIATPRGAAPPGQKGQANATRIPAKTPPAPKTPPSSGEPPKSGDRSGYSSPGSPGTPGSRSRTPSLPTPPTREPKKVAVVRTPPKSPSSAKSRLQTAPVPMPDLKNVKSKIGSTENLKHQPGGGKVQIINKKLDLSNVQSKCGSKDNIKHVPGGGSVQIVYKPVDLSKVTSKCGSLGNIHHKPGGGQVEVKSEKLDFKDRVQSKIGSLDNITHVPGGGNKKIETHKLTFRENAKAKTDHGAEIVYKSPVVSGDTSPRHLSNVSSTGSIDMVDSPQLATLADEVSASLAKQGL

IC50	Structure (SMILES)
290 nM	CCC(/C=C1\Sc2ccc(OC)cc2N1CCO)=C\c1sc2ccc(OC)cc2[n+]1CCO
> 10000 nM	N=c1ccc2nc3ccc(N)cc3sc-2c1
> 10000 nM	C[N+](C)=c1ccc2nc3ccc(N)cc3sc-2c1 [AZURE A]
1280 nM	CNc1ccc2nc3ccc(=[N+](C)C)cc-3sc2c1 [Azure B (11)]
> 10000 nM	C/N=c1\ccc2nc3ccc(N)cc3sc-2c1 [Azure C (13)]
1090 nM	CN(C)c1ccc(N=C2C=CC(=[N+](C)C)C=C2)cc1 [Bindschedler's green (19)]
490 nM	CN(C)c1ccc(C(=C2C=CC(=[N+](C)C)C=C2)c2ccc(N(C)C)cc2)cc1 [CHEBI:77181]
> 10000 nM	O=C1C=CC(=C(c2ccc(O)cc2)c2ccc(O)cc2)C=C1 [Corallin]
2570 nM	CCCN1/C(=C/C=C/C2=[N+](CCC)c3ccccc3C2(C)C)C(C)(C)c2ccccc21 [Cyanines, 6]
120 nM	C1=C2\Sc3ccccc3N2CCCC[n+]2c(sc3ccccc32)/C=C/C=C2\Sc3ccccc3N2CCCC[n+]2c(sc3ccccc32)/C=C/1 [Cyanines, 9]
> 10000 nM	N=C1C=CC(=C(c2ccc(N)cc2)c2ccc(N)cc2)C=C1 [Fuschin (17)]
170 nM	O=C(O)CCN1C(=O)/C(=C/c2ccc(-c3ccc(-c4ccccc4)cc3)o2)SC1=S [Rhodanines, 20A]
170 nM	O=C(O)CCN1C(=O)/C(=C/c2ccc(-c3ccc(-c4ccc(C(=O)O)o4)cc3)o2)SC1=S [Rhodanines, 21A]
210 nM	O=C(O)CCCCN1C(=O)/C(=C/c2ccc(-c3ccc(-n4cccc4)cc3)o2)SC1=S [Rhodanines, 22A]
230 nM	O=C(O)CCCN1C(=O)/C(=C/c2ccc(-c3ccc(-n4cccc4)cc3)o2)SC1=S [Rhodanines, 23A]
240 nM	O=C(O)CCN1C(=O)/C(=C/c2ccc(-c3ccc(-n4cccc4)cc3)o2)SC1=S [Rhodanines, 24A]
240 nM	O=C(O)CCCCN1C(=O)/C(=C/c2ccc(-c3ccc(-c4ccccc4)cc3)o2)SC1=S [Rhodanines, 25A]
260 nM	O=C(O)CCCCN1C(=O)/C(=C/c2ccc(-c3ccc(-c4ccc(C(=O)O)o4)cc3)o2)SC1=S [Rhodanines, 26A]
420 nM	O=C(O)CC(C(=O)O)N1C(=O)/C(=C/c2ccc(-c3cccc(Cl)c3)o2)SC1=S (stereo unspecified) [Rhodanines, 27A]
470 nM	O=C(O)CCN1C(=O)/C(=C/c2ccc(-c3cccc(Cl)c3)o2)SC1=S [Rhodanines, 28A]
540 nM	O=C1/C(=C/c2ccc(-c3ccc(-n4cccc4)cc3)o2)SC(=S)N1Cc1nc2ccccc2[nH]1 [Rhodanines, 29A]
580 nM	O=C(O)Cc1ccc(CN2C(=O)/C(=C/c3ccc(-c4ccc(-c5ccc(C(=O)O)o5)cc4)o3)SC2=S)cc1 [Rhodanines, 30A]
650 nM	O=C(O)CCN1C(=O)/C(=C/c2ccc(-c3ccccc3Cl)o2)SC1=S [Rhodanines, 31A]
670 nM	O=C1/C(=C/c2ccc(-c3cccc(Cl)c3)o2)SC(=S)N1Cc1nc2ccccc2[nH]1 [Rhodanines, 32A]
730 nM	O=C(O)Cc1ccc(CN2C(=O)/C(=C/c3ccc(-c4ccc(-c5ccccc5)cc4)o3)SC2=S)cc1 [Rhodanines, 33A]

IC50	Structure (SMILES)
750 nM	O=C(O)c1ccc(-c2ccc(-c3ccc(/C=C4\SC(=S)N(CCc5c[nH]cn5)C4=O)o3)cc2)o1 [Rhodanines, 34A]
780 nM	O=C(O)Cc1ccc(CN2C(=O)/C(=C/c3ccc(-c4ccc(-n5cccc5)cc4)o3)SC2=S)cc1 [Rhodanines, 35A]
820 nM	O=C(O)CN1C(=O)/C(=C/c2ccc(-c3cccc(Cl)c3)o2)SC1=S [Rhodanines, 36A]
940 nM	O=C(O)CCCN1C(=O)/C(=C/c2ccc(-c3ccc(-c4ccccc4)cc3)o2)SC1=S [Rhodanines, 37A]
970 nM	O=C(O)CCN1C(=O)/C(=C/c2ccc(-c3cccc(Cl)c3)s2)SC1=S [Rhodanines, 38A]
1090 nM	O=C1/C(=C/c2ccc(-c3cccc(Cl)c3)o2)SC(=S)N1CCc1c[nH]cn1 [Rhodanines, 39A]
1220 nM	O=C(O)CCCN1C(=O)/C(=C/c2ccc(-c3cccc(Cl)c3)o2)SC1=S [Rhodanines, 40A]
1400 nM	O=C1/C(=C/c2ccc(-c3ccc(-c4ccccc4)cc3)o2)SC(=S)N1Cc1nc2ccccc2[nH]1 [Rhodanines, 41A]
1410 nM and 4360 nM	CC(C(=O)O)N1C(=O)/C(=C/c2ccc(-c3cccc(Cl)c3)o2)SC1=S (stereo unspecified) [Rhodanines, 42A]
1850 nM	O=C1/C(=C/c2ccc(-c3ccc(-n4cccc4)cc3)o2)SC(=S)N1CCc1c[nH]cn1 [Rhodanines, 43A]
1970 nM	O=C(O)Cc1ccc(CN2C(=O)/C(=C/c3ccc(-c4cccc(Cl)c4)o3)SC2=S)cc1 [Rhodanines, 44A]
3100 nM	O=C(O)CN1C(=O)/C(=C/c2ccc(-c3cccc(Cl)c3)o2)OC1=S [Rhodanines, 46A]
5030 nM	O=C(O)CCCN1C(=O)/C(=C/c2cccc(-c3ccc(-c4ccccc4)cc3)n2)SC1=S [Rhodanines, 51B]
5030 nM	O=C(O)CCCCN1C(=O)/C(=C/c2cccc(-c3ccc(-c4ccccc4)cc3)n2)SC1=S [Rhodanines, 52B]
6100 nM	O=C(O)CN1C(=O)/C(=C/c2ccc(-c3cccc(Cl)c3)o2)NC1=S [Rhodanines, 53A]
7700 nM	O=C1/C(=C/c2ccc(-c3ccc(-c4ccccc4)cc3)o2)SC(=S)N1CCc1c[nH]cn1 [Rhodanines, 54A]
7920 nM	O=C(O)CCN1C(=O)C(=CC2CCC(c3ccc(-c4ccccc4)cc3)C2)SC1=S (stereo unspecified) [Rhodanines, 55A]
9380 nM	O=C1/C(=C/c2cccc(-c3ccc(-c4ccccc4)cc3)c2)SC(=S)N1CCc1c[nH]cn1 [Rhodanines, 57B]
12400 nM	O=C1/C(=C/c2ccc(-c3ccc(-c4ccccc4)cc3)cc2)SC(=S)N1CCc1c[nH]cn1 [Rhodanines, 58B]
14800 nM	O=C(O)Cc1ccc(CN2C(=O)/C(=C/c3ccc(-c4ccc(-c5ccccc5)cc4)cc3)SC2=S)cc1 [Rhodanines, 59B]
19600 nM	O=C(O)CCN1C(=O)/C(=C/c2ccc(-c3ccc(-c4ccccc4)cc3)cc2)SC1=S [Rhodanines, 60B]
35500 nM	O=C(O)Cc1ccc(CN2C(=O)/C(=C/c3cccc(-c4ccc(-c5ccccc5)cc4)n3)SC2=S)cc1 [Rhodanines, 62B]
117000 nM	O=C1/C(=C/c2cccc(-c3ccc(-c4ccccc4)cc3)n2)SC(=S)N1CCc1c[nH]cn1 [Rhodanines, 63B]
146000 nM	O=C(O)Cc1ccc(CN2C(=O)/C(=C/c3cccc(-c4ccc(-c5ccccc5)cc4)c3)SC2=S)cc1 [Rhodanines, 64B]
280 nM	CCN1/C(=C/C(C)=C/c2sc3ccccc3[n+]2CC)Sc2ccccc21 [SMR000354813]

Structure (SMILES)	IC50
CN(C)c1ccc(C(=C2C=CC(=[N+](C)C)C=C2)c2ccccc2)cc1 [Malachite green (16)]	520 nM
